# Data from patent publication US20050180982A1, “Cadherin-11 expression, an assay and treatment for cellular invasiveness” (THE UNIVERSITY OF BRITISH COLUMBIA, priority 1998, published 2005).
# Key:
# [1] = test system: cad-11 mRNA in endometrial stromal cells; test: Northern blot of cad-11 mRNA in cultured endometrial stromal cells treated with gonadal steroids; assay type: cell-based, human; settings: P4 1 mM, E2 30 nM
# Protocol: (§1) Endometrial tissue biopsies (n=6) were obtained from women of reproductive age during the mid-secretory phase of the menstrual cycle. All patients had normal menstrual cycles and had not received hormones for at least three months prior to the collection of tissue. The stage of the menstrual cycle was determined by the last menstrual period and confirmed by histological evaluation.
# The endometrial stromal cells were separated from the glandular epithelium by enzymatic digestion and mechanical dissociation. […] The purity of the cell cultures was determined by immunocytochemical staining for vimentin, cytokeratin, muscle actin, and […]. […]
# The Northern blots were hybridized with radiolabelled cDNA probes specific for human cad-11 according to the methods of MacCalman et al. (1992) Developmental Dynamics 195:127-132. […] The absorbance values obtained for cad-11 mRNA transcripts were normalized relative to the 18S rRNA absorbance value.
# (§2) The results are presented as the mean relative absorbance (+SE) for three independent experiments. Statistical differences between time points and treatments were assessed by the analysis of variance (ANOVA). […] Significant differences between the means were determined using the least significant test.
# [2] = test system: cad-11 protein in endometrial stromal cells; test: Western blot of cad-11 protein in cultured endometrial stromal cells treated with gonadal steroids; assay type: cell-based, human
# Protocol: as §1
# The endometrial stromal cells were separated from the glandular epithelium by enzymatic digestion and mechanical dissociation. The endometrial biopsy specimens were minced and subjected to 0.1% colagenase (type 1A. Sigma Chemical Co., St. Louis. MO) and 0.1% hyaluronidase (type I-S, Sigma Chemical Co.) digestion in a shaking water bath at 37° C. for 1 hour. The cell digest was then passed through a nylon sieve (38 m). The isolated glands were retained on the sieve and the eluate containing the stromal cells collected in a 50 ml tube. […] The purity of the cell cultures was determined by immunocytochemical staining for vimentin, cytokeratin, muscle actin, and […]. […]
# as §2
# cad-11 = test: Cad-11 antisense/sense oligonucleotide studies, second oligonucleotide pair; assay type: cell-based, human; settings: no individual experiments specified
# Protocol: Antisense oligonucleotide sequences (18 mers, 50% AT/GC) were selected from the full-length cad-11 cDNA sequence using the MacVector™ program. DNA sequences located near the 5′ end of the cad-11 cDNA were selected and compared to the human sequence databases of GenBank and EMBL bank. […] Sense oligonucleotides, OB-3 and OB-4, were prepared as controls. Phosphothiorate labelled oligonucleotides were prepared at the Biotechnology Lab. of The University of British Columbia. The same results were obtained using OB-1 and OB-3, as with OB-2 and OB-4.
# [3] = test system: Cos-1 cells transfected with the steroid acute regulatory protein; test: Non-specific effects on cell number and steroidogenic capacity in Cos-1 cells; assay type: cell-based; parameters: cell number (Coulter cell counter): dose or concentration left out as unconfirmed
# Protocol: Non-specific effects of the antisense oligonucleotides on cell viability and the steroidogenic capacity of cells was determined using Cos-1 cells transfected with the steroid acute regulatory protein (from Dr. J. F. Strauss, III. University of Pennsylvania, Philadelphia, Pa.). […] The COS-1 cells were cultured in the presence or absence of varying concentrations of OB-1 OR OB-3 (0.5-5 M) for 48 hours. The cell number present in each culture was determined using a Coulter™ cell counter and P4 concentrations present in the culture medium using a Progesterone RIA™ kit. As determined by these parameters.
# human decidual cells = test: Effect on primary cultures of human decidual cells; settings: 0.5-5 M for 24 hours
# [4] = test system: PC3 cells treated with TGF-1; test: Effect of oligonucleotides on PC3 cells treated with TGF-1; settings: 0.5-5 M for 24 hours
# villous cytotrophoblasts = test: Reversibility of oligonucleotide effects on villous cytotrophoblasts; assay type: cell-based, human; settings: 48 hours with oligonucleotide, washed, further 24 hours
# Protocol: To determine whether the effects of OB-1 on villous cytotrophoblasts are reversible, cells were cultured in the presence of OB-1 or OB-3 for 48 hours. The cells were washed thoroughly with PBS. The culture medium was then replaced and the cells cultured for a further 24 hours. […] The majority of cells (90%) detached from the culture and dish. Cad-11 was not detected in the remaining cells.
# [5] = test system: cad-11 RNA transcript in human granulosa cells; test: Specificity of antisense in granulosa cells, Northern blot, cad-11 probe; assay type: cell-based; parameters: dose or concentration left out as unconfirmed; settings: 24 hours, dose-dependent manner for OB-1
# Protocol: (§3) In order to determine the specificity of OB-1, the effect of OB-1 was determined in human granulosa cells. Human granulosa cells express three cadherin subtypes (cad-11, cad-6 and N-cad) as they undergo spontaneous luteinization in culture. Granulosa cells which had been cultured for 36 hours were treated with OB-1 or OB-3 (0.5-5 M). The cultures were maintained for a further 24 hours, after which the cells were harvested for Northern analysis. Northern blots were probed with cad-11, cad-6, or N-cadherin (neural cadherin) cDNA probes as previously described. OB-1 caused a reduction in the levels of the cad-11 RNA transcript in a dose-dependent manner but had no effect on cad-6 or N-cadherin mRNA levels. In contrast.
# [6] = test system: cytotrophoblasts isolated from term placenta; test: Morphology of cytotrophoblasts by light microscopy and indirect immunofluorescence; assay type: cell-based, human; settings: indirect immunofluorescence for E-cadherin
# Source text: The effect of OB-1 and OB-3 on the morphology of the cytotrophoblast was examined by light microscopy and indirect immunofluoresence.
# [7] = test system: cad-6 mRNA in human granulosa cells; test: Specificity of antisense in granulosa cells, Northern blot, cad-6 probe; assay type: cell-based; settings: 0.5-5 M, 24 hours
# Protocol: as §3
# [8] = test system: Villous cytotrophoblasts isolated from the human term placenta, cultured 72 hours
# [9] = test system: N-cadherin mRNA in human granulosa cells; test: Specificity of antisense in granulosa cells, Northern blot, N-cadherin probe; assay type: cell-based; settings: 0.5-5 M, 24 hours
# Protocol: as §3
compound,measurement,setting,value
"CC(=O)[C@H]1CC[C@H]2[C@@H]3CCC4=CC(=O)CC[C@]4(C)[C@H]3CC[C@]12C [P4, progesterone]",time in culture at which maximum cad-11 mRNA levels were observed,[1],12 days
same,stromal cad-11 mRNA levels,"[1]; alone or together, increase seen after 2 days of culture, studied 0-12 days",significant increase
same,time in culture at which maximum cad-11 expression levels were detected,[2],12 days
same,cad-11 protein expression,"[2]; P4, E2 30 nM, alone or together, increase seen at 2 days of culture",increase
"OB-2: cad-11 antisense oligonucleotide, 18 mer: CAC GAA GAA CTG GTT CCA (SEQ ID NO:2) (antisense CACGAAGAACTGGTTCCA; listed as DNA, chemistry not given here; listed as Homo sapiens)",results compared with the pair OB-1 (antisense) and OB-3 (sense),cad-11,same results
OB-3: sense oligonucleotide prepared as control: ATG ACA AAT GTT CGG CGG (SEQ ID NO:3) (sense ATGACAAATGTTCGGCGG; chemistry not given here) [reference compound],"steroidogenic capacity (P4 concentrations in culture medium, RIA)",[3]; 0.5-5 M for 48 hours,did not have a significant effect
same,cell number (Coulter cell counter),[3]; for 48 hours,did not have a significant effect
same,cell viability and number,human decidual cells,did not have a significant effect
same,cell viability and number,[4],did not have a significant effect
same,structures observed after wash-out,villous cytotrophoblasts,large syncytial structures
same,levels of the cad-11 RNA transcript,[5],did not effect
same,composition of cellular structures formed (fusion),[6],multinucleated syncytial structures
same,cad-6 mRNA levels,[7],did not effect
same,viability of syncytial structures (trypan blue),[8],viable
same,structures observed (phase contrast microscopy),"[8]; oligonucleotide added after 72 hours of culture, OB-1 for 24 hours",Large syncytial structures
same,N-cadherin mRNA levels,[9],did not effect
"OB-4: sense oligonucleotide prepared as control: ACC TTG GTC AAG AAG CAC (SEQ ID NO:4) (sense ACCTTGGTCAAGAAGCAC; listed as DNA, chemistry not given here) [reference compound]",results compared with the pair OB-1 (antisense) and OB-3 (sense),cad-11,same results
